The values that follow come from ChEMBL document CHEMBL1201862, “PubChem BioAssay data set” (2004).

Test systems include SK-MEL-5; TK-10; LOX IMVI; KM12; CAKI-1; OVCAR-3; CCRF-CEM; HL-60; PC-3; MDA-N; SN12C; MOLT-4; DU-145; HOP-62; NCI-H522; T47D.
Holding throughout (test): NCI-60 cell line screen, 48 h

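In this assay, cells in 96-well plates receive the compound at five concentrations for 48 hours. Endpoints are linearly interpolated between the surrounding concentrations. GI50: concentration for 50% inhibition of growth.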 Activity calls are given as the source filed them. Rule as the data show it: active = GI50 up to about 1.1 µM and inactive = higher.

`Cc1nn(C(=O)c2ccccc2O)c2c1C(c1ccc(O)cc1O)SC(=N)N2` (centres undefined): the GI50 in the test with SK-MEL-5 is 4.12 µM (inactive); with TK-10, > 10 µM (inactive); in the test with LOX IMVI, 4.6 µM (inactive); in the test on KM12 it was 6.19 µM (inactive); in the test with CAKI-1, 4.29 µM (inactive); with OVCAR-3, 2.96 µM (inactive). The GI50 with CCRF-CEM is 3.05 µM (inactive); in the test on HL-60, 5.52 µM (inactive); in the test on PC-3, 3.22 µM (inactive); in the test with MDA-N, 5.78 µM (inactive); with SN12C, 9.71 µM (inactive); in the test on MOLT-4, 3.48 µM (inactive). In addition, the GI50 was 8.28 µM (inactive) with DU-145 and 3.02 µM (inactive) in the test on HOP-62.
For the compound `c1ccc(Cc2cc(-c3ccccc3)[nH]n2)cc1`, the GI50 was 17.4 µM (inactive) in the test on TK-10; 15.1 µM (inactive) with LOX IMVI; 14 µM (inactive) in the test on KM12; 11.5 µM (inactive) in the test with CAKI-1; 0.0465 µM (active) in the test on OVCAR-3; 10.9 µM (inactive) in the test with CCRF-CEM. In addition, the GI50 is 16.9 µM (inactive) in the test with HL-60; 16.7 µM (inactive) in the test on NCI-H522; 15.8 µM (inactive) with PC-3; 13.5 µM (inactive) in the test on SN12C; 10.4 µM (inactive) with MOLT-4; 11.5 µM (inactive) in the test with DU-145. The GI50 with T47D was 33.3 µM (inactive); in the test on HOP-62 it was 24.8 µM (inactive).
With `Cc1cccc(C)c1N1C(=O)C2c3[nH]c4ccccc4c3C3CCC(C(C)(C)C)CC3C2C1=O` (centres undefined), the GI50 was 14.3 µM (inactive) in the test on SK-MEL-5; 17.6 µM (inactive) in the test on TK-10; 10.1 µM (inactive) in the test with LOX IMVI; 12.3 µM (inactive) with CAKI-1; 13.7 µM (inactive) in the test with OVCAR-3; 12.6 µM (inactive) in the test with CCRF-CEM. In addition, the GI50 is 12.8 µM (inactive) in the test on HL-60; 6.44 µM (inactive) in the test on PC-3; 11.5 µM (inactive) in the test with MDA-N; 10.2 µM (inactive) in the test with SN12C; 24.6 µM (inactive) in the test on MOLT-4; 8.45 µM (inactive) with DU-145. In addition, in the test on HOP-62, the GI50 is 2.43 µM (inactive).
Consider `Cc1cccc2c1C/C(=C\c1cccc(C)c1C(=O)O)C2=O`, for which the GI50 with SK-MEL-5 is 71.6 µM (inactive); in the test on TK-10, > 100 µM (inactive); in the test on LOX IMVI, > 100 µM (inactive); in the test on KM12, > 100 µM (inactive); in the test with CAKI-1, > 100 µM (inactive); in the test on OVCAR-3, > 100 µM (inactive). The GI50 was 84.9 µM (inactive) with CCRF-CEM; > 100 µM (inactive) in the test with HL-60; > 100 µM (inactive) with NCI-H522; > 100 µM (inactive) with PC-3; > 100 µM (inactive) in the test on SN12C; 61.1 µM (inactive) in the test with MOLT-4. Besides, the GI50 in the test on DU-145, with T47D and in the test on HOP-62 was > 100 µM (inactive) in each case.
With `O=C(c1ccc(/N=C/c2ccccc2O)cc1)c1ccc(/N=C/c2ccccc2O)cc1`, the GI50 in the test with SK-MEL-5 was 6.11 µM (inactive); in the test on TK-10, > 100 µM (inactive); in the test with LOX IMVI it was > 100 µM (inactive); in the test with KM12, > 100 µM (inactive); in the test on CAKI-1, > 100 µM (inactive); in the test on OVCAR-3, > 100 µM (inactive). Moreover, the GI50 in the test on HL-60 was > 100 µM (inactive); in the test with NCI-H522, > 100 µM (inactive); with PC-3 it was > 100 µM (inactive); with MOLT-4, > 100 µM (inactive); with DU-145, > 100 µM (inactive); with T47D, 62.8 µM (inactive). The GI50 in the test with HOP-62 was > 100 µM (inactive).
With `O=C(O)c1ccc([N+](=O)[O-])c(P(=O)(O)O)c1`, the GI50 in the test on SK-MEL-5, in the test on TK-10, in the test with LOX IMVI, in the test on KM12, in the test with CAKI-1 and with OVCAR-3 was > 100 µM (inactive) in each case. Also, the GI50 in the test with HL-60, in the test with PC-3, in the test on MDA-N, in the test on SN12C, in the test on MOLT-4 and in the test with DU-145 was > 100 µM (inactive) each time. For the same compound, the GI50 in the test on T47D and with HOP-62 was > 100 µM (inactive) each time.
As for `CC/C(Cl)=N\OC(=O)Nc1ccc(F)c([N+](=O)[O-])c1`, the GI50 with SK-MEL-5 was 12.4 µM (inactive); in the test on TK-10 it was 11.6 µM (inactive); in the test on LOX IMVI, 15.6 µM (inactive); in the test with KM12 it was 17.5 µM (inactive); in the test on CAKI-1 it was 2.85 µM (inactive); with OVCAR-3 it was 5.08 µM (inactive). Besides, the GI50 with CCRF-CEM was 2.59 µM (inactive); with HL-60, 2.39 µM (inactive); in the test on NCI-H522, 1.93 µM (inactive); in the test on PC-3, 17.3 µM (inactive); with MDA-N, 17.7 µM (inactive); in the test with SN12C, 17.5 µM (inactive). In addition, the GI50 in the test with MOLT-4 is 2.72 µM (inactive); in the test with DU-145 it was 19.5 µM (inactive); in the test on HOP-62 it was 19.6 µM (inactive).
Turning to `COC(=O)[C@H](C)NC(=O)[C@H](NS(=O)(=O)c1nc2ccccc2s1)c1ccccc1`, the GI50 with SK-MEL-5 was 15.8 µM (inactive); with TK-10 it was 58.1 µM (inactive); in the test with LOX IMVI it was 15.6 µM (inactive); in the test with KM12, 14 µM (inactive); in the test on CAKI-1, 32.4 µM (inactive); in the test on CCRF-CEM it was 34.4 µM (inactive). The GI50 was 39.3 µM (inactive) in the test with HL-60; 38.8 µM (inactive) with PC-3; 29 µM (inactive) in the test with MOLT-4; 15.2 µM (inactive) in the test with DU-145; 15.3 µM (inactive) with T47D; 29.4 µM (inactive) with HOP-62.
As for `Cc1cc(C)c2ccc(N3CCNCC3)nc2n1`, the GI50 in the test on TK-10, in the test with LOX IMVI, in the test with KM12, in the test on CAKI-1, in the test with OVCAR-3 and in the test with CCRF-CEM was > 100 µM (inactive) in each case. In addition, the GI50 was 55.7 µM (inactive) in the test on HL-60; > 100 µM (inactive) in the test on NCI-H522; > 100 µM (inactive) in the test on PC-3; > 100 µM (inactive) in the test with MDA-N; > 100 µM (inactive) in the test with SN12C; > 100 µM (inactive) in the test on MOLT-4. The GI50 with DU-145 and in the test with HOP-62 was > 100 µM (inactive) each time.
As to `COc1ccc(-c2nc3ncccn3c2-c2ccc([S+](C)[O-])cc2)cc1` (centres undefined), the GI50 with SK-MEL-5 is 36.8 µM (inactive); in the test on LOX IMVI, > 100 µM (inactive); with KM12 it was 80.9 µM (inactive); in the test with CAKI-1, 14.2 µM (inactive); in the test with OVCAR-3, > 100 µM (inactive); with CCRF-CEM, > 100 µM (inactive). For the same compound, the GI50 is > 100 µM (inactive) with HL-60; > 100 µM (inactive) in the test on PC-3; 36.9 µM (inactive) in the test on MDA-N; > 100 µM (inactive) in the test on SN12C; > 100 µM (inactive) in the test with MOLT-4; > 100 µM (inactive) in the test on DU-145. Moreover, the GI50 with HOP-62 is > 100 µM (inactive).
As to `O=C1OC(C(O)C(O)C(O)CO)C(O)C1O` (centres undefined), the GI50 with SK-MEL-5, in the test on TK-10, in the test with LOX IMVI, with KM12, in the test on CAKI-1 and in the test with OVCAR-3 was > 100 µM (inactive) in each case. The GI50 in the test with CCRF-CEM, in the test on HL-60, in the test with NCI-H522, in the test on PC-3, in the test on SN12C and with MOLT-4 was > 100 µM (inactive) each time. The GI50 in the test on DU-145, in the test on T47D and with HOP-62 was > 100 µM (inactive) in each case.
`COc1cc2c(cc1OC)-c1c(oc3cc(OC4OC(CO)C(O)C(O)C4O)c(OC)cc3c1=O)C(O)O2` (centres undefined): the GI50 in the test with SK-MEL-5, in the test on TK-10, in the test with LOX IMVI, in the test with KM12, in the test with CAKI-1 and in the test on OVCAR-3 was > 100 µM (inactive) throughout. In addition, the GI50 in the test on CCRF-CEM, with HL-60, with NCI-H522, in the test on PC-3, in the test on SN12C and in the test on DU-145 was > 100 µM (inactive) throughout. The GI50 in the test with HOP-62 was > 100 µM (inactive).
`C=CCOCn1cnc2c(N)ncnc21`: the GI50 in the test on SK-MEL-5, in the test on TK-10, in the test on LOX IMVI, in the test with KM12, in the test on CAKI-1 and with CCRF-CEM was > 100 µM (inactive) in each case. The GI50 in the test on HL-60, with PC-3, in the test with MDA-N, in the test with SN12C, in the test with MOLT-4 and in the test on DU-145 was > 100 µM (inactive) in each case. The GI50 with T47D and in the test with HOP-62 was > 100 µM (inactive) throughout.
Consider `O=C1CC(C(O)C(O)C(O)CO)CC(=O)N1` (centres undefined), for which the GI50 with SK-MEL-5, with TK-10, in the test with LOX IMVI, in the test on KM12, in the test on CAKI-1 and in the test on OVCAR-3 was > 100 µM (inactive) in each case. Moreover, the GI50 in the test with CCRF-CEM, in the test on HL-60, in the test with NCI-H522, in the test with PC-3, with MDA-N and in the test with SN12C was > 100 µM (inactive) in each case. In addition, the GI50 with MOLT-4, with T47D and in the test with HOP-62 was > 100 µM (inactive) in each case.
